Data published in patent US12282013B2, “Ex vivo methods of screening for, and characterizing, cardiac therapeutics using preloaded cardiac tissues” (NOVOHEART INTERNATIONAL LIMITED, priority 2018, dated 2025).

Tests used:
[1] = tested on: human ventricular cardiac tissue strip (hvCTS); assay: hvCTS contractile force assay, unstretched, 1-Hz pacing; type: cell-based; conditions: hvCTS paced at 1 Hz, increasing concentrations, responses described as blunted
Procedure: Seventy-two hours after dissociation, the hvCTS was made by mixing 1.3 million hESC-vCMs and 0.13 million human foreskin fibroblasts, together with 110 μl collagen gel comprising 1.67 mg/ml collagen and […] Matrigel. The cell mixture was then cast into a PDMS mold with two pillars and allowed to solidify for 2 hours in a 37° C., 5% CO2 incubator. Then, the cell mixture was fed with 7 ml DMEM medium (high glucose) supplemented with 10% newborn calf serum. Half of the medium was changed every 2 days.
On day 17 post-fabrication, human ventricular Cardiac Tissue Strips (hvCTS) were transferred from their molds and hooked to the force transducer unit and motor unit of an isolated muscle bath system (Aurora Scientific). The length of the hooked tissue was then adjusted to reach minimal developed tension, which was defined as the original length (Lo, or 0% Lmax) of the tissue. The hvCTS was then incubated in the bath at 37° C. for 10 minutes. Next, the hvCTS was electrically paced (at 5V/cm) at 1 Hz frequency, and stretched from 0 to 50% strain in 2.5% increments every 20 seconds. Recordings were made using Dynamic Muscle Control software (Aurora Scientific). The contractile parameters at each % strain, such as developed force, contractile rate and relaxation rate, were analyzed by Clampfit (Molecular Devices). The length with the maximum developed force was defined as Lmax. […]

[2] = tested on: human ventricular cardiac organoid chamber (hvCOC); assay: hvCOC pressure-volume / developed pressure assay with preload; type: cell-based; conditions: for area in the pressure-volume loops: absence of preload
Procedure: The hvCOC was made by a similar approach: Ten million hESC-vCMs and 1 million human foreskin fibroblasts were mixed with 1650 μl collagen gel (same relative composition as described above for hvCTS). The mixture was then cast into a 13-mm diameter cavity in a 2% agarose gel. A modified 6-Fr silicone balloon Foley catheter (Cook Medical) was then inflated and placed into the center of the bioreactor to form the inner boundary of the hvCOC. An 8 mm porous polyethylene ring (Fisher Scientific) and a 6 mm rubber ring were placed on top of the catheter to provide an hvCOC anchor. The polyethylene ring, rubber ring and the catheter were held by a metal tube with 3.9 mm outer diameter. The cell mixture was allowed to solidify for 2 hours in a 37° C., 5% CO2 incubator. Then, the solidified cell mixture was fed with 7 ml DMEM medium (high glucose) supplemented with 10% newborn calf serum. After 24 hours, the medium was aspirated and the agarose gel was removed. Twenty ml of medium was replenished and half of the medium was changed every 2 days. Further description of the hvCOC is provided in Example 5.
Human ventricular Cardiac Organoid Chamber (hvCOC) behavior was measured on day 10 post-fabrication. First, the catheter was deflated and removed. Then, the culture medium was replaced by phenol red-free DMEM (with 25 mM glucose and 25 mM HEPES). Rubber tubing was then filled with medium and used to connect the metal tube of the hvCOC apparatus to a medium tank. The hvCOC was electrically paced at 1.5 Hz (5V/cm) and the pressure-volume change resulting from the paced contractions was recorded for 30 seconds. Pressure was measured by a pressure sensor (Millar) placed inside the hvCOC, and associated area change of the hvCOC was captured by high-speed camera (Allied Vision). The medium tank level was then adjusted from 0 mm (relative to medium level of that in the hvCOC bioreactor), to 2.5, 5 and 7.5 mm above the medium level (representing 0, 2.5, 5 and 7.5 mm H2O preload). The measurements at all 4 preloads (0, 2.5, 5 and 7.5 mm H2O) were then repeated at each dose (0.01 and 0.1 μM) of levosimendan after a 5-minute incubation period.

| SMILES | contractile force [1] | area in the pressure-volume loops ([2]; hvCOC) | increase in developed pressure ([2]; hvCOC, 5 mmH2O preload, 0.1 μM) | developed pressure, dose dependence ([2]; hvCOC, 7.5 mmH2O preload) | developed pressure ([2]; hvCOC, no preload (0 mmH2O), 1 μM) | response of hvCOC (developed pressure) ([2]; preload increased to 2.5 or 5 mmH2O) |
| --- | --- | --- | --- | --- | --- | --- |
| CC(C)NCC(O)c1ccc(O)c(O)c1 (centres unmarked) [isoproterenol] | trend of increasing contractile force | increase in area in the pressure-volume loops |  |  |  |  |
| C[C@@H]1CC(=O)NN=C1c1ccc(NN=C(C#N)C#N)cc1 [levosimendan] | trend of increasing contractile force | increase in area in the pressure-volume loops | approximately 50% | did not show any significant dose-dependent increase | no increase in developed pressure | greatly enhanced the response |
